Assay results as given in article PMC9653409, “Generative deep learning enables the discovery of a potent and selective RIPK1 inhibitor” (Nature Communications, 2022).
Like-named read-outs stand apart in the source and are kept apart here.

Experiments:
Assay in all cases: Kinase inhibitory activity profiling of RI-962@10 µM (406 kinases, Eurofins)
Assay type in all cases: biochemical
[1] = target: panel of human kinases (kinase named in endpoint) (Homo sapiens, UniProt O00141); details: 10 µM; read-out: Activity (%), SGK(h)
Description: (§1) In vitro kinase activity assays were conducted through the Kinase Profiling Services provided by Eurofins (Eurofins, France). The protocol for the RIPK1 assay is briefly described as follows (Protocols for other kinases are very similar and can be found in http://www.eurofins.com/pharmadiscovery). RIPK1 kinase was incubated with the test compound in assay buffer containing 8 mM MOPS (pH 7.0), 0.2 mM EDTA, 250 μM […], 10 mM magnesium acetate, and 10 μM [γ-33P]-ATP for 15 min at room temperature. The reaction was initiated by the addition of the Mg/ATP mixture. After incubation for 40 min at room temperature, and the reaction was stopped by the addition of 3% phosphoric acid. A 10 μL portion of the reaction mixture was then spotted onto a P30 filter mat and washed four times for 4 min in 0.425% phosphoric acid and once in methanol prior to drying and scintillation counting.

[2] = target: panel of human kinases (kinase named in endpoint) (Homo sapiens, UniProt O14578); details: 10 µM; read-out: Activity (%), CRIK(h)
Description: as §1

[3] = target: panel of human kinases (kinase named in endpoint) (Homo sapiens, UniProt O60331); details: 10 µM; read-out: Activity (%), PIP5K1g(h)
Description: as §1

[4] = target: panel of human kinases (kinase named in endpoint) (Homo sapiens, UniProt O75716); details: 10 µM; read-out: Activity (%), STK16(h)
Description: as §1

[5] = target: panel of human kinases (kinase named in endpoint) (Homo sapiens, UniProt P04049); details: 10 µM; read-out: Activity (%), c-RAF(h)
Description: as §1

[6] = target: panel of human kinases (kinase named in endpoint) (Homo sapiens, UniProt P04626); details: 10 µM; read-out: Activity (%), ErbB2(h)
Description: as §1

[7] = target: panel of human kinases (kinase named in endpoint) (Homo sapiens, UniProt P07949); details: 10 µM; read-out: Activity (%), Ret(h)
Description: as §1

[8] = target: panel of human kinases (kinase named in endpoint) (Homo sapiens, UniProt P08581); details: 10 µM; read-out: Activity (%), Met(h)
Description: as §1

[9] = target: panel of human kinases (kinase named in endpoint) (Homo sapiens, UniProt P09619); details: 10 µM; read-out: Activity (%), PDGFRβ(h)
Description: as §1

[10] = target: panel of human kinases (kinase named in endpoint) (Homo sapiens, UniProt P10721, V560G); details: 10 µM; read-out: Activity (%), cKit(V560G)(h)
Description: as §1

[11] = target: panel of human kinases (kinase named in endpoint) (Homo sapiens, UniProt P15056, V600E); details: 10 µM; read-out: Activity (%), B-Raf(V599E)(h)
Description: as §1

[12] = target: panel of human kinases (kinase named in endpoint) (Homo sapiens, UniProt P42684); details: 10 µM; read-out: Activity (%), Arg(h)
Description: as §1

[13] = target: panel of human kinases (kinase named in endpoint) (Homo sapiens, UniProt P53667); details: 10 µM; read-out: Activity (%), LIMK1(h)
Description: as §1

[14] = target: panel of human kinases (kinase named in endpoint) (Homo sapiens, UniProt P68400); details: 10 µM
Description: as §1

[15] = target: panel of human kinases (kinase named in endpoint) (Homo sapiens, UniProt Q00536); details: 10 µM; read-out: Activity (%), CDK16/cyclinY(h)
Description: as §1

[16] = target: panel of human kinases (kinase named in endpoint) (Homo sapiens, UniProt Q07002); details: 10 µM; read-out: Activity (%), CDK18/cyclinY(h)
Description: as §1

[17] = target: panel of human kinases (kinase named in endpoint) (Homo sapiens, UniProt Q08881); details: 10 µM; read-out: Activity (%), Itk(h)
Description: as §1

[18] = target: panel of human kinases (kinase named in endpoint) (Homo sapiens, UniProt Q12851); details: 10 µM; read-out: Activity (%), GCK(h)
Description: as §1

[19] = target: panel of human kinases (kinase named in endpoint) (Homo sapiens, UniProt Q13555); details: 10 µM; read-out: Activity (%), CaMKIIγ(h)
Description: as §1

[20] = target: panel of human kinases (kinase named in endpoint) (Homo sapiens, UniProt Q6PHR2); details: 10 µM; read-out: Activity (%), ULK3(h)
Description: as §1

[21] = target: panel of human kinases (kinase named in endpoint) (Homo sapiens, UniProt Q9HBY8); details: 10 µM; read-out: Activity (%), SGK2(h)
Description: as §1

[22] = target: panel of human kinases (kinase named in endpoint) (Homo sapiens, UniProt Q9NRH2); details: 10 µM; read-out: Activity (%), SNRK(h)
Description: as §1

[23] = target: panel of human kinases (kinase named in endpoint) (Homo sapiens, UniProt Q9UIK4); details: 10 µM; read-out: Activity (%), DAPK2(h)
Description: as §1

[24] = target: panel of human kinases (kinase named in endpoint) (Homo sapiens, UniProt Q9UKE5); details: 10 µM; read-out: Activity (%), TNIK(h)
Description: as §1

[25] = target: panel of human kinases (kinase named in endpoint) (Homo sapiens, UniProt Q9Y2H1); details: 10 µM; read-out: Activity (%), NDR2(h)
Description: as §1

panel of human kinases (kinase named in endpoint) (Homo sapiens, UniProt P68400), sequence (P68400 whole entry): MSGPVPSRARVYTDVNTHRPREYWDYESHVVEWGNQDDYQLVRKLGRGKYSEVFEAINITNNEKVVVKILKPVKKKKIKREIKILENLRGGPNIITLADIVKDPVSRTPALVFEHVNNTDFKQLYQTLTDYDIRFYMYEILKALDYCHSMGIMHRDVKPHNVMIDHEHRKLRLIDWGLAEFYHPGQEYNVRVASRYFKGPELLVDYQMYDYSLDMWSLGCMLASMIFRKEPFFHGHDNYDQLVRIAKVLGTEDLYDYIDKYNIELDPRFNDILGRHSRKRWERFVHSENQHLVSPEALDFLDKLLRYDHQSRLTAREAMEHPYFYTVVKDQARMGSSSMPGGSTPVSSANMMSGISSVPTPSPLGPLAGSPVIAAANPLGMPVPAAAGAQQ
panel of human kinases (kinase named in endpoint) (Homo sapiens, UniProt P42684), sequence (P42684 whole entry): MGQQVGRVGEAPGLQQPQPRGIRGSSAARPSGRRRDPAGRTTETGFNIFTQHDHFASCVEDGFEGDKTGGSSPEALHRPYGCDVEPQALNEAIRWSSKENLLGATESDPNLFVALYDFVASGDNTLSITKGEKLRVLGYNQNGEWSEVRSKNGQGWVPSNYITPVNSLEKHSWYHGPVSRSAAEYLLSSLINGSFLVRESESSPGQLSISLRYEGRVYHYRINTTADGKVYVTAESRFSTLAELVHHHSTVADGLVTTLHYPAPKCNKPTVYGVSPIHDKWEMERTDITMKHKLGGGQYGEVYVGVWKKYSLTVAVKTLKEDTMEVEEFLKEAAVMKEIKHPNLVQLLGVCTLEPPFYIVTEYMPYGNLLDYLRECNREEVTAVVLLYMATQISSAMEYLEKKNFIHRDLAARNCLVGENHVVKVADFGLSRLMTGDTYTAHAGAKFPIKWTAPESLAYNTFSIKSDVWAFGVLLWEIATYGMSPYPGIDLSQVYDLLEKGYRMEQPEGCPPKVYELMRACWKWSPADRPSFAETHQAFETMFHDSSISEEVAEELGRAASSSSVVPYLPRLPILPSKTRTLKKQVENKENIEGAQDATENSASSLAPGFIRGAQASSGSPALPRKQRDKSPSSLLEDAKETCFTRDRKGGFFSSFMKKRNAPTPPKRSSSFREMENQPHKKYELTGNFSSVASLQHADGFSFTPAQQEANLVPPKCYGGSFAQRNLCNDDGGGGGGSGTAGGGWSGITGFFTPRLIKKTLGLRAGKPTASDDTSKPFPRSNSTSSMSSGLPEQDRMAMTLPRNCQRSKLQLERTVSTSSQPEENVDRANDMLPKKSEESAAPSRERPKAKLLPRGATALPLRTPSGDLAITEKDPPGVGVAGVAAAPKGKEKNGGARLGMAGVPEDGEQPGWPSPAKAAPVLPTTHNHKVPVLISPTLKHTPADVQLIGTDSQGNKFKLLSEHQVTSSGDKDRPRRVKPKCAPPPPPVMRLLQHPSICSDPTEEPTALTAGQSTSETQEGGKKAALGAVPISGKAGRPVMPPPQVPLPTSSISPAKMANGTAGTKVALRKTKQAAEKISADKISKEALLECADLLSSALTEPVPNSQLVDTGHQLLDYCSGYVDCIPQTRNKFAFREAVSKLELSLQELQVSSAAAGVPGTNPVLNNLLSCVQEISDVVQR
panel of human kinases (kinase named in endpoint) (Homo sapiens, UniProt P53667), sequence (P53667 whole entry): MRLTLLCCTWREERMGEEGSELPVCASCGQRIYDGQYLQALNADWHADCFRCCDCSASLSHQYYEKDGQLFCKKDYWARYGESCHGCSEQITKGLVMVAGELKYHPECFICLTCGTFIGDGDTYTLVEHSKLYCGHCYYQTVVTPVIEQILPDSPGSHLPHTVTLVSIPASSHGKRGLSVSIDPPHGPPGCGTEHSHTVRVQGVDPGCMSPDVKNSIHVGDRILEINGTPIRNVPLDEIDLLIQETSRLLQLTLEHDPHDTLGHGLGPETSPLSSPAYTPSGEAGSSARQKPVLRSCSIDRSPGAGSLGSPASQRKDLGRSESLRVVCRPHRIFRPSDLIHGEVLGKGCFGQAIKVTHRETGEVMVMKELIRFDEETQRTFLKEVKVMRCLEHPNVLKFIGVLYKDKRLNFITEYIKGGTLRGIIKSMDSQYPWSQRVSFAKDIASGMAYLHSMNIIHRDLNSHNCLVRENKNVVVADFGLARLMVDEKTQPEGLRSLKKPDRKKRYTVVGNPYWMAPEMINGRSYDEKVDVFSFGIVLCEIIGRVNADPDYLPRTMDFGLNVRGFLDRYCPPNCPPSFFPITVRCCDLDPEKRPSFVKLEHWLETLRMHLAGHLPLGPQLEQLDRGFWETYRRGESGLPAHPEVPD
panel of human kinases (kinase named in endpoint) (Homo sapiens, UniProt Q6PHR2), sequence (Q6PHR2 whole entry): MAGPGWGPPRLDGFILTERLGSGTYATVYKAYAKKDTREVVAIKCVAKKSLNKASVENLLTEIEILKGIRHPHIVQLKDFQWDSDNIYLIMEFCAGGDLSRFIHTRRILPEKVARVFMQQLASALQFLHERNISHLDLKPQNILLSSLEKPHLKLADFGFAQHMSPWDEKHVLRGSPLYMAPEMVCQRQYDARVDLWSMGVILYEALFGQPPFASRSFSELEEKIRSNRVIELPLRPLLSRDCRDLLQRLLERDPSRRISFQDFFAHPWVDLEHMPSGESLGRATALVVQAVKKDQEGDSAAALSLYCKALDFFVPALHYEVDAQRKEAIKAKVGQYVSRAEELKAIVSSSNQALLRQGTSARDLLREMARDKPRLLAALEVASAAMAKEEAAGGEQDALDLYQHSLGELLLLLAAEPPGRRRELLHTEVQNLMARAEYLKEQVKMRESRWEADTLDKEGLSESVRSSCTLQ
panel of human kinases (kinase named in endpoint) (Homo sapiens, UniProt P04626), sequence (P04626 23-1255): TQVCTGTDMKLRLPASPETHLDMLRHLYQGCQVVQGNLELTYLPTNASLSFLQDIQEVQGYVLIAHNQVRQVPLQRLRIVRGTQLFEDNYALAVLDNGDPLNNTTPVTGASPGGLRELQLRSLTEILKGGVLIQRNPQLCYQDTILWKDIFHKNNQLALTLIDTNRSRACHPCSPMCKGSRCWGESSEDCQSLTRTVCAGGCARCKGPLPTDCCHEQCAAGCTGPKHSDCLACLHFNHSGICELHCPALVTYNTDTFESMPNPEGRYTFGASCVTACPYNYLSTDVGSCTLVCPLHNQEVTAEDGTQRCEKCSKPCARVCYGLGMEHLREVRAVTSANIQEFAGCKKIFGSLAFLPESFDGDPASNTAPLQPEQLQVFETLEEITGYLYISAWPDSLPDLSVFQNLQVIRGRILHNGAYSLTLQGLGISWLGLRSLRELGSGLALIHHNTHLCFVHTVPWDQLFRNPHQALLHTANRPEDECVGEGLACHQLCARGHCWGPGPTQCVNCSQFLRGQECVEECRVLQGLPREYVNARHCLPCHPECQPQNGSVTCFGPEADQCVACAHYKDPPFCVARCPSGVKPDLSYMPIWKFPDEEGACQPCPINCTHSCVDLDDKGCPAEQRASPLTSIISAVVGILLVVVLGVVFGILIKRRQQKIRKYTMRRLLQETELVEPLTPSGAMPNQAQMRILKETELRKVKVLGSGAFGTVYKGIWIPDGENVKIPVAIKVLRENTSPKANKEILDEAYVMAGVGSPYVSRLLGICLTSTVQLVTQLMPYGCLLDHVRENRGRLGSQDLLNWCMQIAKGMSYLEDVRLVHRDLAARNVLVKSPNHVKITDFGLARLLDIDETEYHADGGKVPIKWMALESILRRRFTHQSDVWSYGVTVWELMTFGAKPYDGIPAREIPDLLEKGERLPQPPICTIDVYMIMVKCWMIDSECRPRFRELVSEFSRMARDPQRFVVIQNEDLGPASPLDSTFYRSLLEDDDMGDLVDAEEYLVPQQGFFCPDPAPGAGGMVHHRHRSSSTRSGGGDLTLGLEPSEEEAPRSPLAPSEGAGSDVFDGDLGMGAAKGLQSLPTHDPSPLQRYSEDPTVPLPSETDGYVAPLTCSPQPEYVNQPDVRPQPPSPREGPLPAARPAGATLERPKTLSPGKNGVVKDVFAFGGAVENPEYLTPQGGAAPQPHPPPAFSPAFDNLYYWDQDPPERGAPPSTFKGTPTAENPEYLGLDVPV
panel of human kinases (kinase named in endpoint) (Homo sapiens, UniProt P10721, V560G), sequence (P10721 26-976 V560G): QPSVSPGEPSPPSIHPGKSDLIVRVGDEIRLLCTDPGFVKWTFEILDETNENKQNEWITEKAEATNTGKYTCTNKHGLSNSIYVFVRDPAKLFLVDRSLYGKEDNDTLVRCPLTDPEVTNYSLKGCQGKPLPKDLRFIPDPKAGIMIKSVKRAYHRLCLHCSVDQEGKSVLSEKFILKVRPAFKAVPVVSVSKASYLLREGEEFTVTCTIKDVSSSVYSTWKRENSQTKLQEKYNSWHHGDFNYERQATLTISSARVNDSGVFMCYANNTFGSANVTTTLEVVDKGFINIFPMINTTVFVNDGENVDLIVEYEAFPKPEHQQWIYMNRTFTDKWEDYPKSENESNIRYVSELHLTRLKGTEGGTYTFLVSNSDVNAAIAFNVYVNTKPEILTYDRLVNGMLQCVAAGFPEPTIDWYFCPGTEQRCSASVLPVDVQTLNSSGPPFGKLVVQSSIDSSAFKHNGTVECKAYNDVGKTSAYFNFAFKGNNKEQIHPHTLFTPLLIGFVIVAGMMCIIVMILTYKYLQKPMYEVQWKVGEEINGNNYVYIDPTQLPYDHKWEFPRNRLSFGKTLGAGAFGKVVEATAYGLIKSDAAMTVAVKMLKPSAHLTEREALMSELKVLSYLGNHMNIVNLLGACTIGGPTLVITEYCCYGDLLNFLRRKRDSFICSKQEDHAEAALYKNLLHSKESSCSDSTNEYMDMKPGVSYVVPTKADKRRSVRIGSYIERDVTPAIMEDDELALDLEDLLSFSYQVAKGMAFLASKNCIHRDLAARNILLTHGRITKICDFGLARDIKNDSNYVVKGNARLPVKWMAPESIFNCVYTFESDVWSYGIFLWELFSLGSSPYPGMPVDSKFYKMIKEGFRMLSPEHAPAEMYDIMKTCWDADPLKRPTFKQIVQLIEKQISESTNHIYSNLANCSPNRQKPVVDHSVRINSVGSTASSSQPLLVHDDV

Structure (SMILES): CC(C)C(=O)Nc1nc2cc(-c3ccc4c(c3)c(C(=O)NC(C)c3ccccc3)cn4C)ccn2n1 (centres unmarked) [RI-962]
- activity at 10 µM [1]: 85%
- activity at 10 µM [2]: 101%
- activity at 10 µM [3]: 98%
- activity at 10 µM [4]: 100%
- activity at 10 µM [5]: 114%
- activity at 10 µM [6]: 104%
- activity at 10 µM [7]: 114%
- activity at 10 µM [8]: 102%
- activity at 10 µM [9]: 107%
- activity at 10 µM [10]: 95%
- activity at 10 µM [11]: 107%
- activity at 10 µM [12]: 106%
- activity at 10 µM [13]: 97%
- activity at 10 µM ([14]; read-out: Activity (%), CK2(h)): 91%
- activity at 10 µM ([14]; read-out: Activity (%), CK2α1(h)): 94%
- activity at 10 µM [15]: 121%
- activity at 10 µM [16]: 119%
- activity at 10 µM [17]: 71%
- activity at 10 µM [18]: 83%
- activity at 10 µM [19]: 93%
- activity at 10 µM [20]: 68%
- activity at 10 µM [21]: 120%
- activity at 10 µM [22]: 121%
- activity at 10 µM [23]: 104%
- activity at 10 µM [24]: 65%
- activity at 10 µM [25]: 85%
